In a melting point compilation (Tetko et al.; mined from patent text by program, amines drawn as free bases though some values may be those of a salt):
Residues, ends and D or L forms follow the SMILES beside them. *: point of attachment. OiPr = CC(C)O*

melting point [°C]	SMILES
158	O=[N+]([O-])C(c1ccccc1)(c1ccccc1)[N+](=O)[O-]
98 to 102	CC(C)(C)CC(C)(C)Nc1nc(NC(C)(C)C(C)(C)C)nc(N2CC3CCC(CC3)C2)n1
133	CCOC(=O)c1nn(-c2ccc(Cl)cc2Cl)c(-c2ccc(Br)cc2)c1C
155 to 156	CCN(CC)Cc1cnc2c(C)c(NC(=O)c3ccc(-c4ccc(F)cc4)cc3)ccc2c1
180 to 181	Cc1cc(C)cc(Cc2c(C(C)C)c(=O)[nH]c(=O)n2C/C=C/c2ccccc2)c1
153 to 155	O=C(OCc1ccccc1)N1CCN(c2ccc(S(=O)(=O)N3CCCC3=O)cc2)CC1
113 to 115	O=C(O)C(=O)c1ccc(OCCCCSc2ccc3ccccc3c2)cc1
58 to 59	FC(F)(F)Sc1cc(-c2ccccc2)c(-c2ccccc2)[nH]1
192	CC(=O)Nc1ccc(C(=O)CBr)cc1
153 to 155	Nc1ccc(C2=NN3CCCC3Cc3cc4c(cc32)OCO4)cc1 (stereo unspecified)
130 to 132	COc1cc(CCNC(=O)[C@@H](NS(C)(=O)=O)C(C)C)ccc1OCC#Cc1ccccc1
124 to 126	CC(C)(C)OC(=O)NCC1CN(c2cccc(Cl)n2)C1
94 to 96	COC(=O)C(C(C)=O)C(c1cccc([N+](=O)[O-])c1)C(C(C)=O)C(=O)OC (stereo unspecified)
158 to 160	Cc1cn2ccc(N)c(Br)c2n1
59 to 61	CC1(C)c2cc(OS(C)(=O)=O)ccc2OC1Cl (stereo unspecified)
97 to 97.5	O=C(OCc1ccccc1)C1(NS(=O)(=O)c2ccc(Oc3ccc(F)cc3)cc2)CCCC1
78	COC(=O)c1csc(C)c1N
169 to 170	N#CCCN(N)c1nc2ccccc2o1
127 to 129	CSc1cc(SC)c(SC)cc1SC
74 to 76	CCOC(=O)CCn1c(=O)n2cc(C)cc2c2ccccc21
239 to 240	O=C1Nc2ccc(Cl)c(Cl)c2C1=O
239 to 241	CN1c2ccc(-c3ccccc3)cc2Sc2cc(-c3ccccc3)ccc21
190 to 192	O=c1[nH]c(SCCCN2CCN(c3ccccn3)CC2)nc2sc3c(c12)CCCC3
102 to 104	CC(C)SC(=O)Cc1cc(Oc2ccc(C(F)(F)F)cc2Cl)ccc1[N+](=O)[O-]
126 to 129	CC1(C)Cc2c(ccc3c2C(c2cccc(-c4ccc(NC(=O)OCc5ccccc5)cc4)c2)=NCC3(C)C)O1

melting point [°C]	SMILES
110 to 118	CC(C)(C)OC(=O)N1C[C@@H](Sc2ccccc2)C[C@H]1C(=O)O
120 to 121	CC(C)NC(=O)CSCC(=O)c1ccc(-c2ccccc2)cc1
228 to 230	CCNC(=O)C(C)(C)c1ccc(C(=O)Nc2cn3cc(Cl)ccc3n2)cc1
115	CCCN(CCCCc1c[nH]c2ccc(F)cc12)C1COc2c(F)ccc(C(N)=O)c2C1 (stereo unspecified)
237 to 238	O=c1cc(-c2nnn[nH]2)occ1-c1ccccc1
190 to 191	CCOCc1nc2c(N)nc3cccnc3c2n1Cc1cc(-c2ccc(F)cc2)no1
209 to 210	CC(=O)NN[C@@H]1c2cc(C#N)ccc2OC(C)(C)[C@H]1O (relative stereo)
96 to 97	CC(C)=CCC(C(=O)O)C(=O)O
206 to 209	Fc1ccc(-c2nc3ccc(N4CCN(C5CC5)CC4)nn3c2-c2ccnnc2)cc1
104 to 106	N#Cc1ccc2c(c1)C(=O)c1ccccc1CC2
64 to 65	CC(=O)OC1C=C(C)C(=O)CC(C)(C)C1OC(=O)C=Cc1ccccc1 (stereo unspecified)
109 to 110	COC(=O)C(C#N)c1ncc(Cl)cc1Cl (stereo unspecified)
96 to 98	CC(=S)NCC1CN(c2ccc(-c3csc(Cn4cnnn4)n3)c(F)c2)C(=O)O1 (stereo unspecified)
70 to 78	COC(=O)CNc1ccccc1C#N
222 to 234	CC(C)OC(=O)C(CO)NC(=O)C(CC(=O)O)NC(=O)C(C)N (stereo not drawn) (H-Ala-Asp-Ser-OiPr; configuration not given here)
90 to 91	CCOC(=O)c1ccc(NC(=O)COC)cc1NC(=O)COC
72 to 73	CCOC(=O)CC1(NC(C)=O)Cc2ccccc2C1
171 to 172	C=C(c1ccccc1)c1cccc(C(=NOCc2ccc(OCc3nc(-c4ccccc4)oc3C)cc2)C(=O)O)c1
54 to 55	Nc1ccc(CCC(=O)c2ccc(F)cc2)cc1
132	O=C1C=CC(c2ccccc2)(c2ccccc2)[C@@H]2CN(Cc3ccccc3)C[C@H]12 (racemic)
170 to 171	O=C(O)Cc1cccc2c(-c3ccc(F)cc3)onc12
57 to 58	BrCCC1(c2ccccc2)OCCO1
258 to 259	COc1ccc(C(=O)Nc2cc(NC(=O)c3ccc(OCCN4CCCC4)cc3)ccc2C)cc1OC
75 to 77	COc1ccc2cc(I)sc2c1
89 to 91	COC(=O)CCn1c(=O)n2cc(C)cc2c2ccccc21

melting point [°C]	SMILES
77 to 78	C=CC(=O)N1CC(O)CC1C(=O)OC (stereo unspecified)
175 to 177	CCn1ncc2c(N(C)Cc3ccccc3)c3ccccc3nc21
> 300	COc1ccc2c(c1)Cc1c([nH]cnc1=O)N2
101 to 102	CCCS(=O)(=O)c1ccc(NS(=O)(=O)c2cccs2)c2[nH]c(C3=NCCS3)cc12
100 to 104	COc1ccc(Cl)cc1[C@]1(F)C(=O)N(C(=O)N[C@H](C(=O)O)C(C)C)c2cc(C(F)(F)F)ccc21
171 to 173	CCSc1ccccc1N1CCN([C@@H]2Cc3c(OC)ccc(OC)c3C[C@H]2O)CC1 (relative stereo)
118	N#Cc1ccc(C(=O)NCc2nn(-c3ccccc3Cl)c(-c3ccc(Cl)cc3)c2C#N)cc1
158 to 159	COC(=O)c1cc(C(=O)N2CCC(O)CC2)cc(-n2cccc2)c1
178 to 180	Cc1ccccc1S(=O)(=O)c1cc2c(cc1C)OC(C(=O)O)O2 (stereo unspecified)
208 to 211	CC1C(=O)Nc2cccc3c2N1C(=O)C3c1ccccc1 (stereo unspecified)
134	CCNC(=S)NC1CC(C)(C)NC(C)(C)C1
139 to 140	CCOC(=O)c1[nH]c2cc(Cl)cc(Cl)c2c1NCC(=O)OCCCC(=O)c1ccccc1
45	Fc1cccc(Cl)c1-c1c(Cl)cc(-c2ccccn2)nc1Cl
258 to 261	Nc1nc(-c2ccc(CCCCN3CCN(c4nsc5ccccc45)CC3)cc2)cs1
177 to 180	COC(=O)c1ccccc1S(=O)(=O)NC(=O)Nc1nc(OC)n(C)n1
131 to 132	CCOC(=O)C1=Cc2ccc(O)cc2OCC1
183	O=C(COc1cc(-c2ccsc2)nc2ccccc12)N1CCOCC1
116 to 117	O=S(=O)(c1ncc(Cl)cn1)c1cccs1
162 to 163	CC1(C)N=C(c2ccccc2)C(c2ccc(N)cc2)O1 (stereo unspecified)
172	O=C1NC(O)c2cccn2-c2ccsc21 (stereo unspecified)
157 to 158	Oc1cc(O)cc(-c2ccccc2)c1
193	COc1cc(C(O)(C(F)(F)F)C(F)(F)F)cc(Br)c1N(S(C)(=O)=O)S(C)(=O)=O
183	CC(=O)c1cc(F)ccc1Oc1nc2ccc(-n3cc(-c4ccccc4)nn3)cc2cc1Cc1ccccc1
167 to 168	COc1ccc(CC(=O)O)cc1C(=O)NCc1ccc(C(F)(F)F)cc1
182 to 183	O=C(O)c1c(Sc2ccccc2)c2ccccc2n1-c1ccc2c(c1)OCO2

melting point [°C]	SMILES
112 to 114	O=C(NC1C2CC3CC(C2)CC1C3)C1CCCCN1 (stereo unspecified)
< 30	CCCCOCC(O)COc1cc(C)c(OCC(O)COCCCC)cc1C (stereo unspecified)
145 to 147	CC(=O)Oc1c(Cl)nc(-c2ccccc2)nc1Cl
156 to 160	Cc1ccc(-c2nc(Cc3cc4cc(CO)ccc4o3)c(C)o2)cc1
165 to 166	CCOc1cc(N(Cc2cncnc2)c2ccc(C(=O)O)cc2)ccc1OC(F)F
219 to 225	CC(=O)NCC(C)(C)c1ccc2nc(-c3ccncc3)[nH]c2c1
259 to 261	CCCCNc1ccc2n[nH]c(=O)n2n1
157 to 160	N#CCOc1ccc2cc(-c3csc(-c4ccccc4)n3)ccc2c1Br
106 to 107	C#CCN(C(=O)c1cnc(Cl)nc1C(F)(F)F)S(=O)(=O)c1cccc(Cl)c1
101 to 102	CN1C(=O)C(=C2CCN(Cc3ccccc3)CC2)c2ccccc21
135 to 140	NC(=O)CCN1CCC(C2c3ccccc3C=Cc3ccccc32)CC1
67 to 69	Nc1cc(Br)ccc1-c1ccc(F)cc1F
255 to 257	CS(=O)(=O)Nc1cccc(Nc2nc(OC3CCOC3)c3nc[nH]c3n2)c1 (stereo unspecified)
167 to 169	CCN1C(=O)N(c2cc(OC)cc(OC)c2)Cc2cnc(S(C)=O)nc21 (stereo unspecified)
208 to 210	CCOc1ccc(-c2ccc3c(c2)C=C(C(=O)Nc2ccc(CO)cc2)CCO3)cc1
157	Cc1nc(NC(=O)Nc2ccccc2)n(C)c(=O)c1CCN1CCC(Cc2nc3ccccc3n2Cc2ccc(F)cc2)CC1
56 to 58	CCCCc1ccc(CCCC(=O)O)cc1
55 to 56	CCCCn1c(=O)c2c(ncn2S(=O)(=O)CC23CCC(CC2=O)C3(C)C)n(CCCC)c1=O (stereo unspecified)
162	C=COC(=O)n1c(S(=O)Cc2ccc(C)cn2)nc2cscc21 (stereo unspecified)
192 to 193	CC(=O)n1c(=O)oc2c3ncccc3ccc21
80	CCOC(=O)C(C)Oc1cc(-c2ccccc2)nc2ccccc12 (stereo unspecified)
234 to 235	CN1C(=O)C(C(=O)Nc2nccs2)Sc2ccccc21 (stereo unspecified)
144 to 146	CC(c1ccc(OC(=O)CCl)cc1)(c1ccc(OC(=O)CCl)cc1)c1ccc(OC(=O)CCl)cc1
113 to 115	CCC1CN(c2c(F)cc3c(=O)c(C(=O)O)cn(C4CC4F)c3c2OC)CC1(C)N (stereo unspecified)
78 to 80	O=C(NCCCCCCCCCCCO[N+](=O)[O-])c1ccc(N2CCNCC2)nc1

SMILES	melting point [°C]
CN1CC(C[N+]2([O-])CC(=O)NC2=O)CC2c3cccc4[nH]cc(c34)CC21 (stereo unspecified)	163 to 165
